According to patent EP0304244A2, “Propanediol derivatives, their production and use” (Takeda Chemical Industries, Ltd., priority 1987, dated 1989):

Tests used:
Sarcoma 180 cells [1] = assay: Antitumor action, intraperitoneal Sarcoma 180 in mice, life-span and survivors; assay type: in vivo; conditions: ICR mice, 1 x 10⁵ Sarcoma 180 cells i.p.; for Life-span prolonggation ratio (T/C,%): 0.33 mg/mouse i.p. three times (1 hour, 1 day, 2 days after inoculation), calculated only on died mice; for 60th day number of survivors/number of mice tested: 0.33 mg/mouse i.p. three times, 60th day after the initiation of the test
Experimental: ICR mice (a group consisting of 5 mice) were inoculated intraperitoneally with 1 x 10⁵ Sarcoma 180 cells per mouse. Then, 0.33 mg/mouse of a compound dissolved in physiological saline was intraperitoneally administered three times, i.e. 1 hour, 1 day and 2 days after the inoculation. Shown in Table 2 are the lifespan prolongation ratio against the control group without treatment and the number of surviving mice on the 60th day after the initiation of the test.

MM46 cells = assay: Antitumor action, intraperitoneal MM46 in mice, life-span and survivors; assay type: in vivo; conditions: C3H/He mice, 1 x 10⁴ MM46 cells i.p.; 0.25 mg/mouse for 4 consecutive days from the second day after inoculation; 60th day after inoculation
Experimental: C3H/He mice (a group consisting of 5 mice) were inoculated intraperitoneally with 1 x 10⁴ MM46 cells per mouse, and given 0.25 mg/mouse of a drug for 4 consecutive days starting from the second day after the inoculation. Shown in Table 3 are the life-span prolongation ratio against the control group without treatment (provided that calculation was made on mice whose survival days were not longer than 60 days) and the number of surviving mice on the 60th day after the inoculation of MM46 cells.

[2] = tested on: HL-60 cells (myelogenous leukemia cell lines); assay: Inhibition of multiplication of HL-60 cells ([3H]thymidine incorporation); assay type: cell-based; conditions: Homo sapiens; HL-60 cells 2 x 10⁵cells/mℓ in GIT medium; 20 hours incubation then 4 hours with [³H]thymidine; 50% of the control group; read-out: Inhibition of Propagation of HL-60 cells(IC₅₀ : µg/mℓ)
Experimental: The effect of the compound of this invention in inhibiting multiplication of myelogenous leukemia cells (HL-60) is shown in Table 1. The assay was conducted as follows. HL-60 cells (myelogenous leukemia cell lines) were suspended (2 x 10⁵cells/mℓ) in a GIT culture medium (Wako Pure Chemical Industries, Ltd.). Each hole of a 96-hole Microwell plate was inoculated with 0.2 mℓ of the suspension. The plate was incubated statically for 20 hours (37°C and 5% CO₂), to which was added 1 µCi of [³H]thymidine(5 Ci/mmol.), and the incubation was continued for further 4 hours. For determination of the amount of thymidine incorporated into cells, acid-insoluble fractions were collected with a glass-filter, and the radioactivity was determined by means of a liquid scintillation counter. The concentration of the drug required for reducing the radioactivity incorporated into cells to 50% of the control group was assumed to be IC₅₀ value of the compound.

Sarcoma 180 cells [3] = assay: Antitumor action, subcutaneous Sarcoma 180 in mice, oral dosing, tumor weight; assay type: in vivo; conditions: ICR mice, 1 x 10⁵ Sarcoma 180 cells in dorsal subcutis; 0.3 mg/mouse orally 9 times from the 8th day; tumor weighed on the 21st day
Experimental: ICR mice (a group consisting of 6 mice) were inoculated with 1 x 10⁵ Sarcoma 180 cells per mouse in the dorsal subcutis, and then 0.3 mg/mouse of a test compound dissolved in physiological saline was orally administered 9 times starting from the 8th day (8th to 10th, 13th to 17th and 20th days). On the 21st day, a tumor was enucleated, and the weight of the tumor was measured. The ratio of tumor weight of the treated group against that of the control group without treatment by drug is shown in Table 4.

Row | SMILES | IC50 [2] [µg/mL] | Life-span prolonggation ratio (T/C,%) (Sarcoma 180 cells [1]) [%] | 60th day number of survivors/number of mice tested (Sarcoma 180 cells [1]) | 60th day No. of survivors/No. of mice tested (MM46 cells) | Weight of tumor (T/C,%) (Sarcoma 180 cells [3]) [%]
1 | CCCCCCCCCCCCCCCCCCOCCCOCCCC[N+](C)(C)C.CS(=O)(=O)[O-] [Compound of Working Example 1, N-[4-[3-(octadecyloxy)propoxy]butyl]N,N,N-trimethylammonium methanesulfonate] | 1.25 | 295 | 2/5 | 5/5 | 
2 | CCCCCCCCCCCCCCCCCCOCCCOCCCC[n+]1ccccc1.CS(=O)(=O)[O-] [Compound of Working Example 2, N-[4-[3-(octadecyloxy)propoxy]butyl]pyridinium methanesulfonate] | 0.62 |  |  |  | 
3 | CCCCCCCCCCCCCCCCCCOCCCOCCCCCC[N+](C)(C)C.[Br-] [Compound of Working Example 3, 6-[3-(octadecyloxy)propoxy]hexyl-N,N,N-trimethylammonium bromide] | 1.25 | 342 | 2/5 |  | 24
4 | CCCCCCCCCCCCCCCCCCOCCCOCCC[N+](C)(C)C.[Br-] [Compound of Working Example 4, 3-[3-(octadecyloxy)propoxy]propyl-N,N,N-trimethylammonium bromide] | 1.25 |  |  |  | 

The next lines start with results.

Row | IC50 [2] [µg/mL] | SMILES | Life-span prolonggation ratio (T/C,%) (Sarcoma 180 cells [1]) [%] | 60th day number of survivors/number of mice tested (Sarcoma 180 cells [1]) | 60th day No. of survivors/No. of mice tested (MM46 cells) | Weight of tumor (T/C,%) (Sarcoma 180 cells [3]) [%]
5 | 5 | CCCCCCCCCCCCCCCCCCOCCCOCCCCCCCC[N+](C)(C)C.[Cl-] [Compound of Working Example 5, N-[8-[3-(octadecyloxy)propoxy]octyl]N,N,N-trimethylammonium chloride] |  |  |  | 
6 | 2.5 | CCCCCCCCCCCCCCCCCCOCCCOCCCCC[N+](C)(C)C.[Cl-] [Compound of Working Example 7, N-[5-[3-(octadecyloxy)propoxy]pentyl]N,N,N-trimethylammonium chloride] |  |  |  | 
7 | 1.25 | CCCCCCCCCCCCCCCCCCOCCCOCCCCC[n+]1ccccc1.[Cl-] [Compound of Working Example 8, N-[5-[3-(octadecyloxy)propoxy]pentyl]pyridinium chloride] |  |  |  | 
